# Legend:
# Format in all cases: cell-based, S. cerevisiae
# GEV-GFP = GEV-GFP nuclear localization after β-estradiol pulse, single-cell microscopy (DBY11415)
# Method: Fluorescence was measured with an epifluorescence Nikon Eclipse-TI inverted microscope using a Nikon 40×/0.95NA DIC Plan Apo objective. The microscope is equipped with a PerfectFocus system (Nikon) for maintaining the correct focal plane, a Clara CCD Camera (Andor DR328G) for recording fluorescence emission, and a TI-S-ER motorized stage with encoders to ensure near perfect return to marked stage positions (Nikon MEC56100). GEV-GFP emission was visualized at 525 nm (50-nm bandwidth) upon excitation at 470 nm (40-nm bandwidth) (Chroma #49002_Nikon ETGFP filter cube). […]
# Overnight cultures of DBY11415 (MATa/MATα HTB2-mCherry-caURA3/HTB2 his3/HIS3, (gal1+PGAL10):: loxP/GAL1, gal4::LEU2/GAL4, HAP1+/hap1−, leu2Δ0::PACT1-GEV-GFP-KanMX/LEU2) were grown in LFM overnight to saturation. […] The Klett was monitored, and at Klett 40 cells were loaded into 96-well glass-bottomed optical plates for microscopy (Nunc #265300). […]
# Image processing was performed by preprocessing the images in ImageJ and then using a custom written Matlab script to extract the intensities in the nuclei relative to the cytoplasm. Briefly, the image processing was done as follows: Fluorescence images were background subtracted using the rolling ball background subtraction command in ImageJ using a ball radius of 50 pixels. […]
# These preprocessed images were then analyzed using a custom-written Matlab script. […]
# PGAL1-CBF1 = test: GEV-mediated induction of PGAL1-CBF1 transcript, microarray (DBY12040); settings: by 5 minutes following addition of β-estradiol
# Method: (§1) For induction experiments, yeast were cultured in 500 mL chemostats (Sixfors; Bottmingen, Switzerland) under phosphate-limitation (20 mg/L potassium phosphate) and pulsed with 1 μM β-estradiol (Tocris Biosciences; Missouri). For the MET4 induction experiment, phosphate-limited media was supplemented with 200 mg/L methionine. Culture volume was maintained at 300 mL. 12-18 hours of batch phase growth prior to pump turn-on was initiated from a 1/60 dilution of cells grown overnight in the same medium. Cultures were grown at 30° C., stirred at 400 RPM, and aerated at 5 L/min with filtered humidified air.
# RNA from cells was extracted, labeled, and hybridized to Agilent expression microarrays as described by (Brauer et al., 2008) with slight modifications. Briefly, RNA was extracted from frozen cells with a standard acid-phenol method and then cleaned with RNeasy (Qiagen). Cleaned mRNA was then converted to cDNA and subsequently converted to labeled cRNA with the Agilent Quick-Amp Labeling Kit (Part No. 5190-0424). Microarray hybridizations were performed for 17 hours at 65° C. and rotated on a rotisserie at 20 RPM. Microarrays were washed and then scanned with Agilent Feature Extractor Software version 9.5. […]
# For time series experiments, 5 mL of cells were taken per culture per time point. […] Enrichment for gene ontology (GO) terms was determined using GO-term finder (Boyle et al., 2004).
# DBY12021 [1] = test: Growth curves in YPD liquid with β-estradiol
# Method: 100 μL of cells+media were grown on flat-bottom 96-well plates (Costar #3631). A600 was measured every 15 minutes in a Synergy HT (Biotek; Vermont) microplate reader. Cells were grown at 30° C. with medium shaking. Growth rates were computed with spline-fits using the grofit R package (KAHM et al. 2010).
# DBY12021 [2] = test: Genome-wide expression after β-estradiol pulse in phosphate-limited chemostat, microarray (DBY12021)
# Method: as §1
# RNA from cells was extracted, labeled, and hybridized to Agilent expression microarrays as described by (Brauer et al., 2008) with slight modifications. Briefly, RNA was extracted from frozen cells with a standard acid-phenol method and then cleaned with RNeasy (Qiagen). Cleaned mRNA was then converted to cDNA and subsequently converted to labeled cRNA with the Agilent Quick-Amp Labeling Kit (Part No. 5190-0424). Microarray hybridizations were performed for 17 hours at 65° C. and rotated on a rotisserie at 20 RPM. Microarrays were washed and then scanned with Agilent Feature Extractor Software version 9.5. Flagged features marked as unreliable were marked N/A. Raw green- and red-channel intensities were floored to a value of 350 (i.e., intensities below 350 were set equal to 350). If the numerator (red-channel, sample RNA) for a given measurement was floored, the denominator (green-channel, reference RNA) for that measurement was set to the average green channel intensity for that gene. The purpose of this smoothing process is to make genes with negligible red-channel signal intensity less sensitive to small fluctuations in the reference intensity. After flooring of the data, the log 2 ratios were computed.
# For time series experiments, 5 mL of cells were taken per culture per time point. Reference RNA was taken from DBY12001 grown in a phosphate-limited chemostat at a dilution rate of 0.18 h^−1. Enrichment for gene ontology (GO) terms was determined using GO-term finder (Boyle et al., 2004).
# GEV = test: β-Galactosidase activity assay, PGAL1-lacZ reporter plasmid pCM64-GAL1 in DBY12100; settings: 2 hours incubation, 1 μM or 10 μM DOC
# Method: Assays were performed essentially as described in (Liu et al., 1999) with minor modifications. 5 mL of cells transformed with pCM64-GAL1 were grown to midlog phase in SC-URA medium at 30° C., then incubated at indicated temperatures for the indicated times with or without (a) 5 μL of ethanol (vehicle control), (b) 2 μL of 2.5 mM β-estradiol (Sigma) dissolved in ethanol (final concentration of 1 μM), (c) 5 μL of 1 mM DOC (deoxycorticosterone; Sigma) dissolved in ethanol (final concentration of 1 μM), or (d) 5 μL of 10 mM DOC dissolved in ethanol (final concentration of 10 μM). Cells (1 mL) were harvested by centrifugation, washed once with sterile H2O, and resuspended in 700 μl of Z buffer (100 mM sodium phosphate, pH 7.0, 10 mM KCl, 1 mM MgSO4, 50 mM β-mercaptoethanol). 50 μl of chloroform and 50 μl of 0.1% SDS were added, and the cell suspension was vortex-mixed at top speed for 30 seconds followed by addition of 200 μl of 4 mg/ml ONPG (ortho-nitrophenyl-β-galactoside; Sigma) was added to each sample and incubated at room temperature until pale yellow color appeared. […] After clarification by centrifugation, the supernatant was diluted, and A420 was measured within the linear response range. Specific β-galactosidase activity was calculated as follows: (A420×1000)/(A600×(volume of cells examined in ml)×(time of incubation in minutes)) and reported in Miller units. […]
# [3] = two hours following saturating (1 μM) β-estradiol addition
SMILES,concentration at which the initial rate of localization achieved its maximum (GEV-GFP),"CBF1 transcript level, share of maximal value (PGAL1-CBF1)",effect on growth of GEV-containing cells (DBY12021 [1]; 10 nM β-estradiol),effect on growth of GEV-containing cells (DBY12021 [1]; high concentrations of β-estradiol),"β-estradiol toxicity, growth of a strain lacking the GEV system (DBY12021 [1]; strain lacking the GEV system)","share of the entire genome affected by GEV-mediated activation (DBY12021 [2]; 3-hour time course, K-means clustering of time course data)",share of all S. cerevisiae genes changed 2-fold (DBY12021 [2]; two hours following 1 μM β-estradiol),number of genes that decrease 2-fold (DBY12021 [2]; [3]),number of genes that increase 2-fold (DBY12021 [2]; [3]),induction of GEV (lacZ activity) (GEV)
C[C@]12CC[C@@H]3c4ccc(O)cc4CC[C@H]3[C@@H]1CC[C@@H]2O [β-estradiol],≥ 1 µM,~70%,no longer show the growth defect,slowing of growth,slow growth does not occur,less than 2%,about 3%,105 genes,94 genes,
C[C@]12CC[C@H]3[C@@H](CCC4=CC(=O)CC[C@@]43C)[C@@H]1CC[C@@H]2C(=O)CO [deoxycorticosterone],,,,,,,,,,not induced

# From US9212359B2, “Systems for induction of gene expression and protein depletion in yeast” (priority 2011, dated 2015)
